Reference: US7064139B2, “Method for treating retroviral infections” (Uniroyal Chemical Company, Inc., priority 2001, dated 2006)
≈ marks a conversion by molar mass, not a printed value.

Test system: HIV-1 (IIIB)
Test: microbe, parasite or virus in culture
Format: cell-based
Conditions: CEM cells, syncytium formation, day four post infection
Source text: (§1) The cell type used to determine activity of the compounds of the invention herein, i.e., the test compounds, against HIV was human T-lymphoblast (CEM) cells obtained from the American Tissue Cell Culture Collection (Rockville, Md.). HIV-1 (IIIB) was originally obtained from the culture of persistently HIV-1 infected H9 cells and was provided by R. C. Gallo and M. Popovic (National Cancer Institute, National Institutes of Health, Bethesda, Md.). HIV-2 (ROD) was originally obtained from L. M. Montagnier (Pasteur Institute, Paris, France).
(§2) To determine the antiviral activity of the test compounds, CEM cells were suspended at a cell density of approximately 300,000 cells per ml of culture medium and infected with approximately 100 CCID50 (100 CCID50 being the 50% cell culture infective dose) of HIV-1 (IIIB) or HIV-2 (ROD)). Then 100 μl of the infected cell suspensions was added to 200 μl micro titer plate wells containing 100 μl of appropriate serial (5-fold) dilutions of the test compounds. The inhibitory effect of the test compounds on HIV-1 or HIV-2 syncytium formation in CEM cells was examined microscopically on day four post infection.
(§3) In these cases, the percent protection of the cells against virus-induced cytopathicity by the test compounds at the indicated compound concentration in the previous column is given.

SMILES | EC50 (ug/ml) HIV-1
Cc1cc[n+]([O-])c([S+]([O-])Cc2ccc(Cl)cc2)c1 (stereo not drawn) [Compound 128] | ≧4 ug/ml
Cc1ccc(C)c(CS(=O)(=O)c2cccc(C)[n+]2[O-])c1 [Compound 72] | 4.00 µg/mL (≈ 13.7 µM)
O=S(=O)(Cc1ccc(Cl)cc1)c1cccc[n+]1[O-] [Compound 12] | 9.50 µg/mL (≈ 33.5 µM)
O=S(=O)(c1cccc[n+]1[O-])C(Cl)c1ccccc1 (stereo not drawn) [Compound 105, 2-(alpha-phenyl-alpha-chloromethylsulfonyl)pyridine-N-oxide] | 16.00 µg/mL (≈ 56.4 µM)
O=S(=O)(Cc1ccc(Cl)cc1Cl)c1cccc[n+]1[O-] [Compound 18] | 2.40 µg/mL (≈ 7.54 µM)
CC(C)c1ccc(CS(=O)(=O)c2cccc[n+]2[O-])cc1 [Compound 58] | 3.40 µg/mL (≈ 11.7 µM)
Cc1ccc(C)c(CS(=O)(=O)c2ccc(Cl)c[n+]2[O-])c1 [Compound 94] | 1.90 µg/mL (≈ 6.09 µM)
Cc1ccc([N+](=O)[O-])c(CS(=O)(=O)c2cccc[n+]2[O-])c1 [Compound 62] | 1.90 µg/mL (≈ 6.16 µM)
Cc1ccc(C[S+]([O-])c2cccc[n+]2[O-])cc1C (stereo not drawn) [Compound 89] | 2.50 µg/mL (≈ 9.57 µM)

Same assay, conditions: Human immunodeficiency virus 1, IIIB, CCRF-CEM, read-out: EC50 (ug/ml) HIV-1

SMILES | EC50 [µg/mL]
Cc1ccc(C)c(C(C)Sc2cc(C)c3ccccc3n2)c1 (stereo not drawn) [Compound 162, 2-[[1-(2,5dimethylphenyl)ethyl]thio]-4-methyl-Quinoline] | > 0.8

Same assay, conditions: Human immunodeficiency virus 1, IIIB, CCRF-CEM; CEM cells, syncytium formation, day four post infection; read-out: EC50 (ug/ml) HIV-1

SMILES | EC50 [µg/mL]
Cc1ccc(C)c(C(Cl)S(=O)(=O)c2ccccn2)c1 (stereo not drawn) [Compound 106, 2-((2,5-dimethylphenyl)chloromethylsulphonyl)pyridine] | 0.9 (≈ 3.04 µM)
Cc1ccc(C)c(C(Cl)S(=O)(=O)c2cc(C)cc[n+]2[O-])c1 (stereo not drawn) [Compound 74, 2-[(2,5-dimethylphenyl)chloromethylsulfonyl]-4-methylpyridine-1-oxide] | 0.42 (≈ 1.29 µM)
Oc1cccnc1SCc1ccccc1 [Compound 140, 2-[(Phenylmethyl)thio]-3-pyridinol] | 2 (≈ 9.2 µM)

Same assay, conditions: protection of CEM cells against virus-induced cytopathicity at the concentration in the previous column

SMILES | HIV-1 % Protection [%]
Cc1ccc(C)c(C(C)Sc2cc(C)c3ccccc3n2)c1 (stereo not drawn) [Compound 162, 2-[[1-(2,5dimethylphenyl)ethyl]thio]-4-methyl-Quinoline] | 0.0
Cc1cc[n+]([O-])c([S+]([O-])Cc2ccc(Cl)cc2)c1 (stereo not drawn) [Compound 128] | 37.5

Test system: HIV-2 (ROD)
Test: Inhibition of HIV-2 syncytium formation in CEM cells
Format: cell-based
Conditions: CEM cells, syncytium formation, day four post infection
Source text: as §1, §2, §3

SMILES | EC50 (ug/ml) HIV-2 [µg/mL]
Cc1cc[n+]([O-])c([S+]([O-])Cc2ccc(Cl)cc2)c1 (stereo not drawn) [Compound 128] | 7.0 (≈ 24.8 µM)
Cc1ccc(C)c(CS(=O)(=O)c2cccc(C)[n+]2[O-])c1 [Compound 72] | >100.0
O=S(=O)(Cc1ccc(Cl)cc1)c1cccc[n+]1[O-] [Compound 12] | 9.5 (≈ 33.5 µM)
O=S(=O)(c1cccc[n+]1[O-])C(Cl)c1ccccc1 (stereo not drawn) [Compound 105, 2-(alpha-phenyl-alpha-chloromethylsulfonyl)pyridine-N-oxide] | 2.5 (≈ 8.81 µM)
O=S(=O)(Cc1ccc(Cl)cc1Cl)c1cccc[n+]1[O-] [Compound 18] | 2.5 (≈ 7.86 µM)
CC(C)c1ccc(CS(=O)(=O)c2cccc[n+]2[O-])cc1 [Compound 58] | 2.6 (≈ 8.92 µM)
Cc1ccc(C)c(CS(=O)(=O)c2ccc(Cl)c[n+]2[O-])c1 [Compound 94] | 2.6 (≈ 8.34 µM)
Cc1ccc([N+](=O)[O-])c(CS(=O)(=O)c2cccc[n+]2[O-])c1 [Compound 62] | 5.0 (≈ 16.2 µM)
Cc1ccc(C[S+]([O-])c2cccc[n+]2[O-])cc1C (stereo not drawn) [Compound 89] | 2.8 (≈ 10.7 µM)

Same assay, conditions: Human immunodeficiency virus 2, CCRF-CEM, read-out: EC50 (ug/ml) HIV-2

SMILES | EC50 [µg/mL]
Cc1ccc(C)c(C(C)Sc2cc(C)c3ccccc3n2)c1 (stereo not drawn) [Compound 162, 2-[[1-(2,5dimethylphenyl)ethyl]thio]-4-methyl-Quinoline] | > 0.16
Oc1cccnc1SCc1ccccc1 [Compound 140, 2-[(Phenylmethyl)thio]-3-pyridinol] | 12 (≈ 55.2 µM)

Same assay, conditions: Human immunodeficiency virus 2, CCRF-CEM; CEM cells, syncytium formation, day four post infection; read-out: EC50 (ug/ml) HIV-2

SMILES | EC50 [µg/mL]
Cc1ccc(C)c(C(Cl)S(=O)(=O)c2ccccn2)c1 (stereo not drawn) [Compound 106, 2-((2,5-dimethylphenyl)chloromethylsulphonyl)pyridine] | > 4
Cc1ccc(C)c(C(Cl)S(=O)(=O)c2cc(C)cc[n+]2[O-])c1 (stereo not drawn) [Compound 74, 2-[(2,5-dimethylphenyl)chloromethylsulfonyl]-4-methylpyridine-1-oxide] | > 100

Same assay, conditions: protection of CEM cells against virus-induced cytopathicity at the concentration in the previous column

SMILES | HIV-2 % Protection [%]
Cc1ccc(C)c(C(Cl)S(=O)(=O)c2ccccn2)c1 (stereo not drawn) [Compound 106, 2-((2,5-dimethylphenyl)chloromethylsulphonyl)pyridine] | 0.0
Cc1ccc(C)c(C(C)Sc2cc(C)c3ccccc3n2)c1 (stereo not drawn) [Compound 162, 2-[[1-(2,5dimethylphenyl)ethyl]thio]-4-methyl-Quinoline] | 0.0
Cc1ccc(C)c(C(Cl)S(=O)(=O)c2cc(C)cc[n+]2[O-])c1 (stereo not drawn) [Compound 74, 2-[(2,5-dimethylphenyl)chloromethylsulfonyl]-4-methylpyridine-1-oxide] | 0.0
Cc1ccc(C)c(CS(=O)(=O)c2cccc(C)[n+]2[O-])c1 [Compound 72] | 0.0

Test system: Davis strain CMV
Test: Reduction of CMV-induced cytopathicity in HEL cells
Format: cell-based, human cytomegalovirus (HCMV)
Conditions: HEL cells, estimate of percent protection at the concentration in the previous column
Description: Confluent HEL cells grown in […] microtiter plates were inoculated with CMV at an input of 100 PFU (plaque forming units) per well. After a one to two hour incubation period, residual virus was removed and the infected cells were further incubated with MEM (Minimal Essential Medium) (supplemented with 2% inactivated Fetal Calf Serum (FCS), […], and 0.3% sodium bicarbonate) containing varying concentrations of the test compounds. Antiviral activity was expressed as EC50 (50% effective concentration), or test compound concentration required to reduce virus-induced cytopathicity after seven days by 50% compared to the untreated control.
In some cases, the compounds had considerable cytotoxicity against HEL cells, which made determination of the EC50 difficult. In these cases, an estimate of the percent protection at the compound concentration indicated in the previous columns is given.

SMILES | Antiviral % Inhibition Davis strain CMV [%]
Cc1cc[n+]([O-])c([S+]([O-])Cc2ccc(Cl)cc2)c1 (stereo not drawn) [Compound 128] | 40.0
Cc1ccc(C)c(CS(=O)(=O)c2cccc(C)[n+]2[O-])c1 [Compound 72] | 0.0
Cc1ccc([N+](=O)[O-])c(CS(=O)(=O)c2cccc[n+]2[O-])c1 [Compound 62] | 20.0

Same assay, conditions: HEL cells, virus-induced cytopathicity after seven days

SMILES | Antiviral EC50 (ug/ml) Davis strain CMV [µg/mL]
Cc1cc[n+]([O-])c([S+]([O-])Cc2ccc(Cl)cc2)c1 (stereo not drawn) [Compound 128] | >20
Cc1ccc(C)c(CS(=O)(=O)c2cccc(C)[n+]2[O-])c1 [Compound 72] | >50
O=S(=O)(Cc1ccc(Cl)cc1)c1cccc[n+]1[O-] [Compound 12] | 20.0
O=S(=O)(c1cccc[n+]1[O-])C(Cl)c1ccccc1 (stereo not drawn) [Compound 105, 2-(alpha-phenyl-alpha-chloromethylsulfonyl)pyridine-N-oxide] | 23.0
O=S(=O)(Cc1ccc(Cl)cc1Cl)c1cccc[n+]1[O-] [Compound 18] | 5.0
CC(C)c1ccc(CS(=O)(=O)c2cccc[n+]2[O-])cc1 [Compound 58] | 5.0
Cc1ccc(C)c(CS(=O)(=O)c2ccc(Cl)c[n+]2[O-])c1 [Compound 94] | 12.0
Cc1ccc([N+](=O)[O-])c(CS(=O)(=O)c2cccc[n+]2[O-])c1 [Compound 62] | >5
Cc1ccc(C[S+]([O-])c2cccc[n+]2[O-])cc1C (stereo not drawn) [Compound 89] | 20.0

Same assay, conditions: Human betaherpesvirus 5, 168 h; HEL cells, virus-induced cytopathicity after seven days; read-out: Antiviral EC50 (ug/ml) Davis strain CMV

SMILES | EC50 [µg/mL]
Cc1ccc(C)c(C(Cl)S(=O)(=O)c2ccccn2)c1 (stereo not drawn) [Compound 106, 2-((2,5-dimethylphenyl)chloromethylsulphonyl)pyridine] | 20 (≈ 67.6 µM)
Cc1ccc(C)c(C(Cl)S(=O)(=O)c2cc(C)cc[n+]2[O-])c1 (stereo not drawn) [Compound 74, 2-[(2,5-dimethylphenyl)chloromethylsulfonyl]-4-methylpyridine-1-oxide] | 34.5 (≈ 106 µM)

Same assay, conditions: Human betaherpesvirus 5, HEL, 168 h, read-out: Antiviral EC50 (ug/ml) Davis strain CMV

SMILES | EC50 [µg/mL]
Cc1ccc(C)c(C(C)Sc2cc(C)c3ccccc3n2)c1 (stereo not drawn) [Compound 162, 2-[[1-(2,5dimethylphenyl)ethyl]thio]-4-methyl-Quinoline] | 1.6 (≈ 5.2 µM)
Oc1cccnc1SCc1ccccc1 [Compound 140, 2-[(Phenylmethyl)thio]-3-pyridinol] | 12 (≈ 55.2 µM)
